Test results from US10208029B2, “Photoacid compositions having extended lifetime of proton dissociation state” (University of Central Florida Research Foundation, Inc., priority 2013, dated 2019).

Legend:
[1] = pH of aqueous solution of photoacid 1 in the dark, under 419 nm irradiation and after light off; format: physicochemical
From the text: Photoacid 1 shown in FIG. 2B as MEH comprises an example disclosed PAH comprising a protonated photochromic merocyanine (MEH) with a propyl sulfonate group on the nitrogen of the indoline moiety. It was discovered that photoacid 1 can reversibly change the proton concentration of its solution by over 100 times.
In an aqueous solution, the MEH form of 1 is predominantly at room temperature in the dark, which was proven by UV-Vis and NMR spectroscopy.
Proton dissociation of the cis-MEH produces cis-ME, which undergoes a nucleophilic ring closing reaction to yield the product shown as SP in FIG. 2B and a proton. The product formed by the ring closing process has a stabilized proton dissociation state.
When the light was turned off, the pH value increased quickly to ˜4.5 in ˜1 min, gradually returning to its original level in ˜5 min. This cycle can be repeated many times. Therefore, the proton concentration in a solution having photoacid 1 can be simply controlled by switching a visible light source on and off.

[2] = Reversibility of photo-induced proton release; format: physicochemical; conditions: PBS buffer with a pH of 7.4
From the text: Referring now to FIGS. 6A-6QQ, the structures of 43 photoacids designed based on FIG. 3A including the photoacids 1 and 40 are shown. All of them have been synthesized. […]. Analogs of photoacid 1 have been extensively studied. Electron-donating groups (-Me and —OMe) on the phenolic moiety increase the stability of the photoacid towards hydrolysis and faster the reverse reaction rate. Photoacids with extended conjugated structures can absorb light and thus function at longer wavelengths than photoacid 1. For example, photoacid 20 has a maximum absorption at 538 nm in 95% ethanol solution, which is about 100 nm longer than that of photoacid 1. Photoacids 10, 17 and 39 have acrylate moieties. They can be used to make photoacid polymers via chain-growth polymerization or thiol-ene reaction. […]. […] In photoacid 34, a benzothiazolium is used as the EA part since it improves the reversibility of the photoreaction.

reversible change of proton concentration of its solution [1] | pH value of aqueous solution ([1]; 5.88×10^−4 M aqueous solution, 25° C., dark) | pH under irradiation ([1]; aqueous solution irradiated with 419 nm light) | pH drop upon irradiation ([1]; aqueous solution, 419 nm light) | pKa ([1]; calculated from pH of 5.88×10^−4 M aqueous solution at 25° C., dark state) | pH value after the light was turned off ([1]; ~1 min after light off) | reversible proton release [2] | Compound | time to return to original pH level after light off ([1]; aqueous solution, dark) [min]
over 100 times | 5.5 | 3.3 | more than 2 units | 7.8 | ~4.5 |  | CC1(C)C(/C=C/c2ccccc2O)=[N+](CCCS(=O)(=O)[O-])c2ccccc21 [photoacid 1] | ~5
 |  |  |  |  |  | can reversibly release a proton | O=S(=O)([O-])CCC[n+]1c(/C=C/c2cccc3cn[nH]c23)sc2ccccc21 [photoacid 34] | 
